Counter-ions that a name gives are not always drawn. Like-named read-outs stand apart in the source and are kept apart here.
Assays:
A549 cells = test: Cytotoxicity assay (resazurin), A549 cells, 96 hr; format: cell-based; settings: read-out: Cell Viability A549 IC50
Experimental: (§1) A549 (CCL-185; ATCC) and A427 (HTB-53; ATCC), both lung epithelial cell lines were seeded in their respective medium (DMEM/MEM, 10569044/41090101; Gibco) at a cell count of 1500 cells per 100 μL per well in a 96 well edge plate (167425; ThermoFisher). Cells were allowed to grow at 37° C. for 24 hr in 5% CO2 environment (culture conditions) in a Nuaire incubator (humidified). Serially diluted test compounds (100 μL) within the desired testing concentration ranges were added to the culture plate were further incubated in culture conditions for 72 hr and 96 hr for A427 and A549 respectively. The experiment was terminated at the designated incubation time by replacing the medium with 100 μL of 1 mM of resazurin (R7017; Sigma) prepared in respective culture medium, and the plates were further incubated in culture conditions for 4-6 hr. Fluorescence was recorded using a multimodal plate reader (Biotek Synergy Neo) at an excitation wavelength of 535 nm and emission wavelength of 590 nm to obtain relative fluorescence units. Data analysis was done by subtracting the background fluorescence (only medium blank) value from each reading and then normalizing with the vehicle control (DMSO treated cells) to obtain percent survival/proliferation. Percent survival was then subtracted by 100 to get the percent inhibition of proliferation which was used to calculate IC50 values. Potency of compounds in other cell lines (As-Pc-1, Panc-10.05, MDAMB231, A172) was determined in an analogous manner.

A427 cells = test: Cytotoxicity assay (resazurin), A427 cells, 72 hr; format: cell-based
Experimental: as §1

WEE1 kinase enzyme = WEE1 kinase enzyme (Homo sapiens (Human), UniProt P30291); test: WEE1 IC50 determination, LanthaScreen Terbium labeled TR-FRET kinase assay; format: biochemical; settings: WEE1 enzyme 1 nM
Experimental: IC50 values of compounds against WEE1 kinase enzyme were determined by LanthaScreen™ Terbium Labeled TR-FRET assay. Kinase assays were performed in 1× kinase buffer (# PV6135, Invitrogen, Life Technologies Grand Island, N.Y.) where total reaction volume was 10 μl in low-volume 384-well plates (#4511, Corning). Serially diluted compounds (3-fold) were incubated with WEE1 Enzyme (1 nM) (# PR7373A, Invitrogen, Life Technologies Grand Island, N.Y.) for 10 min, following which a mixture of ATP […] (# A1852, Sigma, St-Louis, Mo.) and fluorescent-PolyGT substrate (200 nM) (# PV3610, Invitrogen, Life Technologies Grand Island, N.Y.) was added and incubated in dark at room temperature for 1 h. After 1 h, 10 μl stop solution containing Terbium labeled antibody (4 nM) (# PV3529, Invitrogen, Life Technologies Grand Island, N.Y.) and EDTA (# E5134, Sigma, St-Louis, Mo.) (20 mM) in TR-FRET dilution buffer (# PV3574, Invitrogen, Life Technologies Grand Island, N.Y.) was added. Readings were taken in a Synergy Neo Plate reader (BioTek, Winooski) at single excitation of 340 nm and Dual emission at 495 nm and 520 nm respectively.
The % activity of test samples was calculated as (Sample−Min)*100/(Max−Min). [Max: DMSO control, complete reaction with enzyme & DMSO and Min: No enzyme & DMSO]. Percent inhibition (100-% activity) was fitted to the “four-parameter logistic model” in XLfit for determination of IC50 values.

[1] = Homo sapiens, A-427, read-out: Cell Viability A427 IC50

Chain of WEE1 kinase enzyme (P30291 whole entry): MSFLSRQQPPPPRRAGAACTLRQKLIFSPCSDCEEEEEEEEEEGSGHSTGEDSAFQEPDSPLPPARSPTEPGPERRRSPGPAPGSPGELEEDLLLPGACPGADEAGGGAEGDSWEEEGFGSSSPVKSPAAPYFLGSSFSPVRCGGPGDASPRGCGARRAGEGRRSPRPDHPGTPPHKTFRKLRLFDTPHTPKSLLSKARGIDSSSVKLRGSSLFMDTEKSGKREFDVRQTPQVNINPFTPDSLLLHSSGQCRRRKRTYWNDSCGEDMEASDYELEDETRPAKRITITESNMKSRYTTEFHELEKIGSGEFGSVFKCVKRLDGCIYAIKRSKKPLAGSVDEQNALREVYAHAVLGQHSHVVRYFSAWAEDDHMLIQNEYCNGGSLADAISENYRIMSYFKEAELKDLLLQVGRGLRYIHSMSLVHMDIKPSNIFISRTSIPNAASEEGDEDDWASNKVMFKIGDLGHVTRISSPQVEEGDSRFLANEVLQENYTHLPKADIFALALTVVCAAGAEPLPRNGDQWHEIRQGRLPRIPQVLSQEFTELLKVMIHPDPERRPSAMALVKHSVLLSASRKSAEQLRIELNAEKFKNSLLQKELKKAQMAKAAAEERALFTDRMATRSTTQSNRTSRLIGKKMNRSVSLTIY

IC50 (WEE1 kinase enzyme) [nM] | SMILES | IC50 (A549 cells; Homo sapiens) [µM] | IC50 (A427 cells; [1]) [nM] | IC50 (A549 cells) [µM] | IC50 (A427 cells; read-out: Cell Viability A427 IC50) [nM]
56 | CN1CCN(c2ccc(Nc3ncc4c(n3)OCN(c3c(Cl)cccc3Cl)C4=O)cc2)CC1 [Example 1.1] | 9.7 | 4470 | – | –
9 | CN1Cc2cc(Nc3ncc4c(n3)OCN(c3c(Cl)cccc3Cl)C4=O)ccc2C(C)(C)C1 [Example 1.4] | 5.74 | – | – | –
212 | O=C1c2cnc(Nc3ccc(N4CCNCC4)c(F)c3)nc2OCN1c1c(Cl)cccc1Cl [Example 1.29] | 8.88 | – | – | –
325 | Cc1cccc(Cl)c1N1COc2nc(Nc3ccc(N4CCNCC4)cc3)ncc2C1=O [Example 1.30, 3-(2-chloro-6-methylphenyl)-7-((4-(piperazin-1-yl)phenyl)amino)-2,3-dihydro-4H-pyrimido[5,4-e][1,3]oxazin-4-one] | 8.65 | – | – | –
366 | CN1CCN(c2ccc(Nc3cc4c(cn3)C(=O)N(c3c(Cl)cccc3Cl)CO4)cc2)CC1 [Example 1.32, 3-(2,6-dichlorophenyl)-7-(4-(4-methylpiperazin-1-yl)phenylamino)-2H-pyrido[3,4-e][1,3]oxazin-4(3H)-one] | – | – | 7.43 | –
50 | Cc1cc(Nc2ncc3c(n2)OCN(c2c(Cl)cccc2Cl)C3=O)ccc1N1CCNCC1 [Example 1.33, 3-(2,6-dichlorophenyl)-7-(3-methyl-4-(piperazin-1-yl)phenylamino)-2H-pyrimido[5,4-e][1,3]oxazin-4(3H)-one] | 2.69 | 2820 | – | –
14 | O=C1c2cnc(Nc3ccc(C4CCNCC4)c(CO)c3)nc2OCN1c1c(Cl)cccc1Cl [Example 1.34, 3-(2,6-dichlorophenyl)-7-(3-(hydroxymethyl)-4-(piperidin-4-yl)phenylamino)-2H-pyrimido[5,4-e][1,3]oxazin-4(3H)-one] | – | – | 21 | 4810
35 | CN1CCc2ccc(Nc3ncc4c(n3)OCN(c3c(Cl)cccc3Cl)C4=O)cc2C1 [Example 1.35, 3-(2,6-dichlorophenyl)-7-(2-methyl-1,2,3,4-tetrahydroisoquinolin-7-ylamino)-2H-pyrimido[5,4-e][1,3]oxazin-4(3H)-one] | 11.1 | – | – | –
104 | O=C1c2cnc(Nc3ccc(N4CCNCC4)nc3)nc2OCN1c1c(Cl)cccc1Cl [Example 1.36, 3-(2,6-dichlorophenyl)-7-((6-(piperazin-1-yl)pyridin-3-yl)amino)-2,3-dihydro-4H-pyrimido[5,4-e][1,3]oxazin-4-one] | 8.12 | 10400 | – | –
113 | O=C1c2cnc(Nc3ccc(N4CCNC[C@@H]4CO)cc3)nc2OCN1c1c(Cl)cccc1Cl [Example 1.37, (R)-3-(2,6-dichlorophenyl)-7-(4-(2-(hydroxymethyl)piperazin-1-yl)phenylamino)-2H-pyrimido[5,4-e][1,3]oxazin-4(3H)-one] | 9.82 | – | – | –
176 | O=C1c2cnc(Nc3ccc(N4CCNC[C@H]4CO)cc3)nc2OCN1c1c(Cl)cccc1Cl [Example 1.38, (S)-3-(2,6-dichlorophenyl)-7-(4-(2-(hydroxymethyl)piperazin-1-yl)phenylamino)-2H-pyrimido[5,4-e][1,3]oxazin-4(3H)-one] | 9.15 | – | – | –
540 | O=C1c2cnc(Nc3ccc(N4CCNCC4)cc3)nc2OCN1c1c(F)cccc1F [Example 1.39, 3-(2,6-difluorophenyl)-7-(4-(piperazin-1-yl)phenylamino)-2H-pyrimido[5,4-e][1,3]oxazin-4(3H)-one] | 10.5 | – | – | –
20 | O=C1c2cnc(Nc3ccc(N4CCNCC4)c(Cl)c3)nc2OCN1c1c(Cl)cccc1Cl [Example 1.40, 7-(3-chloro-4-(piperazin-1-yl)phenylamino)-3-(2,6-dichlorophenyl)-2H-pyrimido[5,4-e][1,3]oxazin-4(3H)-one] | 2.73 | 2650 | – | –
791 | O=C1CNCCN1c1ccc(Nc2ncc3c(n2)OCN(c2c(Cl)cccc2Cl)C3=O)cc1 [Example 1.41, 3-(2,6-dichlorophenyl)-7-((4-(2-oxopiperazin-1-yl)phenyl)amino)-2,3-dihydro-4H-pyrimido[5,4-e][1,3]oxazin-4-one] | > 30 | – | – | –
25 | CN1CCC(c2ccc(Nc3ncc4c(n3)OCN(c3c(Cl)cccc3Cl)C4=O)cc2CO)CC1 [Example 1.42, 3-(2,6-dichlorophenyl)-7-(3-(hydroxymethyl)-4-(1-methylpiperidin-4-yl)phenylamino)-2H-pyrimido[5,4-e][1,3]oxazin-4(3H)-one] | 5.6 | 3200 | – | –
479 | CN1CCN(c2ccc(Nc3ncc4c(n3)OCN(c3c(Cl)cncc3Cl)C4=O)cc2)CC1 [Example 1.43, 3-(3,5-dichloropyridin-4-yl)-7-(4-(4-methylpiperazin-1-yl)phenylamino)-2H-pyrimido[5,4-e][1,3]oxazin-4(3H)-one] | 22.1 | – | – | –
23 | O=C1c2cnc(Nc3ccc4c(c3)CCNC4)nc2OCN1c1c(Cl)cccc1Cl [Example 1.44, 3-(2,6-dichlorophenyl)-7-(1,2,3,4-tetrahydroisoquinolin-6-ylamino)-2H-pyrimido[5,4-e][1,3]oxazin-4(3H)-one] | 5.79 | – | – | –
288 | O=C1c2cnc(Nc3ccc(N4CCC(O)CC4)cc3)nc2OCN1c1c(Cl)cccc1Cl [Example 1.45, 3-(2,6-dichlorophenyl)-7-(4-(4-hydroxypiperidin-1-yl)phenylamino)-2H-pyrimido[5,4-e][1,3]oxazin-4(3H)-one] | > 30 | – | – | –
53 | NCC(=O)N1CCN(c2ccc(Nc3ncc4c(n3)OCN(c3c(Cl)cccc3Cl)C4=O)cc2)CC1 [Example 1.46, 7-(4-(4-(2-aminoacetyl)piperazin-1-yl)phenylamino)-3-(2,6-dichlorophenyl)-2H-pyrimido[5,4-e][1,3]oxazin-4(3H)-one] | 9.86 | – | – | –
70 | C[C@@H]1CN[C@@H](C)CN1c1ccc(Nc2ncc3c(n2)OCN(c2c(Cl)cccc2Cl)C3=O)cc1 [Example 1.47, 3-(2,6-dichlorophenyl)-7-(4-((2R,5S)-2,5-dimethylpiperazin-1-yl)phenylamino)-2H-pyrimido[5,4-e][1,3]oxazin-4(3H)-one hydrochloride] | 4.1 | 7100 | – | –
103 | CNCCOc1ccc(Nc2ncc3c(n2)OCN(c2c(Cl)cccc2Cl)C3=O)cc1 [Example 1.48, 3-(2,6-dichlorophenyl)-7-(4-(2-(methylamino)ethoxy)phenylamino)-2H-pyrimido[5,4-e][1,3]oxazin-4(3H)-one] | 8.38 | 11100 | – | –
331 | COc1cc(Nc2ncc3c(n2)SCN(c2c(Cl)cccc2Cl)C3=O)ccc1N1CCC(N(C)C)CC1 [Example 1.242] | – | 1620 | – | –
948 | CC1CNCCN1c1ccc(Nc2ncc3c(n2)SCN(c2c(Cl)cccc2Cl)C3=O)cc1Cl (stereo not drawn) [Example 1.243] | – | 625 | – | –
351 | CC1CN(c2ccc(Nc3ncc4c(n3)SCN(c3c(Cl)cccc3Cl)C4=O)cc2Cl)CCN1 (stereo not drawn) [Example 1.244] | – | 510 | – | –
297 | CN(C)C1CCN(c2ccc(Nc3ncc4c(n3)SCN(c3c(F)cccc3Cl)C4=O)cc2Cl)CC1 [Example 1.245] | – | 1140 | – | –
61 | CC1(C)NCCc2cc(Nc3ncc4c(n3)SCN(c3c(Cl)cccc3Cl)C4=O)ccc21 [Example 1.246] | – | 2440 | – | –

— US10807994B2, “Heterocyclic compounds and uses thereof” (NUVATION BIO INC., priority 2017, dated 2020)
